Patent US20060004102A1, “Polymorphic forms of nateglinide” (priority 2004, published 2006)
Structures can show the parent of a compound that is named as a salt. Where two headings read alike, the source gives them in different places. Blank lines part the entries; values can stand above or below the compound they belong to.

Experiments:
[1] = DSC, according to U.S. Pat. No. 5,463,116; cited from earlier work
[2] = Solubility of nateglinide in solvents; type: physicochemical; settings: mixture of methanol, water and a base (source of ammonium ions)
[3] = cited from earlier work

SMILES: CC(C)[C@H]1CC[C@H](C(=O)N[C@H](Cc2ccccc2)C(=O)O)CC1 [B-type, nateglinide]
stability of crystal form during grinding [1]: unstable and susceptible to change during grinding

solubility [2]: relatively insoluble
SMILES: CC(C)[C@H]1CC[C@H](C(=O)N[C@H](Cc2ccccc2)C(=O)O)CC1 [Form Phi, nateglinide ammonium salt]

SMILES: CC(C)[C@H]1CC[C@H](C(=O)N[C@H](Cc2ccccc2)C(=O)O)CC1 [nateglinide, (−)-N-(trans-4-isoporpylcyclohexanecarbonyl)-D-Phenylalanine]
solubility ([3]; in acetonitrile): sparingly soluble
solubility ([3]; in chloroform): freely soluble
solubility ([3]; in ethanol): freely soluble
solubility ([3]; in ether): soluble
solubility ([3]; in methanol): freely soluble
solubility ([3]; in octanol): sparingly soluble
solubility ([3]; in water): practically insoluble
solubility ([3]; in water, listed as Nateglinide): insoluble
